Laboratory results published in US20240123036A1, “COMPOSITIONS AND METHODS FOR THE TREATMENT OF GRAFT VERSUS HOST DISEASE” (VectivBio AG, priority 2021, published 2024).
Like-named read-outs stand apart in the source and are kept apart here. Square brackets hold non-standard residues; d marks the D form. Peptide text beside a SMILES is read from it. ξ: configuration not given here. Ile(3ξ) = CCC(C)[C@H](N)C(=O)O; Thr(3ξ) = CC(O)[C@H](N)C(=O)O; Nle = CCCC[C@H](N)C(=O)O

Key:
[1] = tested on: acute gastrointestinal GvHD in BALB/cJ male mice; experiment: Acute GvHD mouse model, 7.0 Gy irradiation plus allogeneic transplant (Example 1, second experiment); assay type: in vivo
Excerpt: FIG. 3a-3b is a series of graphs showing colon length and small intestine length in an acute GvHD mouse model following treatment with apraglutide. Data are shown as the mean ±SEM length of intestinal colon. N-5-10/group. Each dot represents data for one mouse.
FIG. 14 is a series of graphs showing that treatment with apraglutide improves animal survival of TBI/BMT treated animals. Kaplan-Meier curves—Animal survival was monitored daily. N=10 at time=0 for each treatment group. […] When comparing to the control group, survival of TBI/BMT was significant different ### p=0.0007. BMT=b one marrow transplant; TBI=total body irradiation.

[2] = tested on: hPBMC engraftment in NOG mice; experiment: Engraftment of human PBMC in total-body-irradiated NOG mice (Example 2, first experiment); assay type: in vivo, mouse
Method: Engraftment rate was determined through CD45 expression in blood, bone marrow and spleen.

[3] = tested on: cytarabine-induced damage in BALB/cJ female mice; details: for polymorphonuclear (PMN) cell count: cytarabine 30 mg/kg twice per day, alone or combined with hGLP-2 or apraglutide, FIG. 20
Method: In a first experiment BALB/cJ female mice were separated into six groups for a dose-response study to assess the pharmacologic effect of increasing doses of apraglutide (0.11, 0.3 and 1.1 mg/kg) administered subcutaneously. Cytarabine was administered intraperitoneally at 30 mg/kg twice per day for 5 days (Day 0 to Day +4). Apraglutide was administered daily for a total of nine days, 4 days before and 5 days during the administration of chemotherapy (Day −4 to Day +4). Apraglutide effect was compared to unmodified hGLP-2 which was administered twice daily from Day −4 to Day +4, at a nominal dose of 0.60 mg/kg and combined with cytarabine.

[4] = tested on: GvHD-induced intestinal damage in BALB/cJ mice; experiment: TBI-induced intestinal damage and allogeneic transplantation in BALB/cJ mice (Example 2, second experiment); assay type: in vivo, mouse
Method: Intestinal damage indicative of GvHD (histological changes, length, hemorrhage, inflammation), body weight, and survival were assessed.

[5] = tested on: acute gastrointestinal GvHD in BALB/cJ male mice; experiment: Acute GvHD mouse model, 8.5 Gy irradiation plus allogeneic bone marrow/spleen cell transplant (Example 1, first experiment); assay type: in vivo
Method: Mouse #3 (Group A), #13 (Group B) and #20 (Group B) were administered the cells by subcutaneous injection rather than intravenously. Mouse #5 (Group B) and #10 (Group B) received half the cells by intravenous injection and half by subcutaneous injection.
Following sacrifice of the mice, the colon lengths of the mice in Group A and Group B, as well as a control group of BALB/c mice (untreated), were measured. […] Thus, treatment with apraglutide protected the mice in Group A from a reduction in colon length, which is typically attributed to the inflammation caused by acute, gastrointestinal GvHD.
Various histological parameters of the jejunum were also measured, including single cell necrosis levels, necrosis of all crypts, shortening of villi, cryptal hyperplasia (regenerative), cell infiltrate, and cryptal abscess. These histological parameters were graded on a standard histological grading system (1 to 3). […] These indicate that the administration of apraglutide has a protective effective against jejunal mucosal damages induced by irradiation and GvHD.

[6] = tested on: blood cells of Balb/c mice; experiment: Melphalan-induced immunosuppression in Balb/c mice (Example 5, third experiment); assay type: in vivo, mouse
Method: In a third experiment, the effect of apraglutide on melphalan-induced immunosuppression was assessed (FIG. 13). Three groups of Balb/c mice were included: (A) vehicle; (B) melphalan on Day 9; (C) melphalan on Day 9, apraglutide pre-treatment on Days 1, 3, 5, 7 and continued as co-administration on Days 9, 11, and 13. WBC, NEU and LYMPH were assessed.

[7] = tested on: blood cells of Balb/c mice; experiment: Cytarabine-induced immunosuppression, blood cell counts in Balb/c mice (Example 5, second experiment); assay type: in vivo, mouse; set-up: reduction in lymphocytes / Red blood cells, percentage difference from control / Platelets, percentage difference from control / White blood cells, percentage difference from control / Lymphocytes, percentage difference from control / Neutrophils, percentage difference from control: concentration or dose not given beside the values
Method: In a second experiment, apraglutide's effect on the ability of cytarabine to induce immunosuppression was assessed. The experiment included three groups of Balb/c mice: (A) vehicle; (B) cytarabine on Days 5-9; (C) cytarabine on Days 5-9, concomitant apraglutide on Days 5-18. RBC, platelets, WBC, NEU and LYMPH were assessed. A cohort was allowed to survive for 4 weeks to assess the effect of apraglutide on immunosuppression recovery (FIG. 12).

[8] = tested on: chemotherapy-induced gastrointestinal damage in Balb/c mice; experiment: Chemotherapy-induced (cytarabine or melphalan) intestinal damage in Balb/c mice (Example 3); assay type: in vivo, mouse
Method: In a first experiment, 4 groups of Balb/c mice: (A) vehicle only; (B) cytarabine on Days 5-9, no apraglutide given; (C) cytarabine on Days 5-9; concomitant apraglutide on Days 5-18; (D) cytarabine on Days 5-9; pre-treatment apraglutide on Days 1, 3, and continued as concomitant treatment on Days 5, 8, 11, 14, and 17. Treatment groups were dosed with 30 mg/kg cytarabine and/or apraglutide 3.3 mg/kg.
In a second experiment, 3 treatment groups of Balb/c mice: (A) vehicle only; (B) melphalan on Day 9, no apraglutide; (C) melphalan on Day 9; pre-treatment apraglutide on Days 1, 3, 5, 7 and continued as concomitant treatment on Days 9, 11, and 13.
In both models, mice that received vehicle without any treatment served as controls. Intestinal tissue histology, body weight, survival, and plasma citrulline, a marker of total mucosal mass and intestinal growth, was assessed in both models.

[9] = tested on: fecal microbiota (Bacteroidetes, Firmicutes) of Balb/c mice; details: feces
[10] = tested on: human leukemia cells (hCD45+) in NOD/SCID mice; details: Day 7; cytarabine Days 0-4; apraglutide or vehicle Days -4 to 4
Method: In a first experiment, cytarabine' s anti-tumor effects were assessed in leukemic NOD/SCID mice (FIG. 11a). Apraglutide or vehicle was administered on Days -4 to 4. Cytarabine or vehicle was administered on Days 0-4. Bone marrow and spleen samples were collected on Day 7 and percentage of hCD45+ cells determined.

[11] = Day 18 (post-treatment), cytarabine 30 mg/kg Days 5-9, apraglutide 3.3 mg/kg Days 1-18
[12] = melphalan on Day 9, with or without apraglutide

## CCCC[C@H](NC(=O)[C@H](CCC(=O)O)NC(=O)[C@H](CC(=O)O)NC(=O)[C@H](CO)NC(=O)[C@H](Cc1ccccc1)NC(=O)[C@H](CO)NC(=O)CNC(=O)[C@H](CC(=O)O)NC(=O)CNC(=O)[C@@H](N)Cc1c[nH]cn1)C(=O)N[C@H](Cc1ccccc1)C(=O)N[C@H](C(=O)N[C@H](C(=O)N[C@@H](CC(C)C)C(=O)N[C@@H](CC(=O)O)C(=O)N[C@@H](CC(C)C)C(=O)N[C@@H](CC(C)C)C(=O)N[C@@H](C)C(=O)N[C@@H](C)C(=O)N[C@@H](CCCNC(=N)N)C(=O)N[C@@H](CC(=O)O)C(=O)N[C@@H](Cc1ccccc1)C(=O)N[C@H](C(=O)N[C@@H](CC(N)=O)C(=O)N[C@@H](Cc1c[nH]c2ccccc12)C(=O)N[C@@H](CC(C)C)C(=O)N[C@H](C(=O)N[C@@H](CCC(N)=O)C(=O)N[C@H](C(=O)N[C@@H](CCCCN)C(=O)N[C@H](C(=O)N[C@H](C(=O)N[C@@H](CC(=O)O)C(N)=O)C(C)O)C(C)CC)C(C)O)C(C)CC)C(C)CC)C(C)CC)C(C)O (stereo partly drawn) [apraglutide] (H-HGDGSFSDE[Nle][dF][Thr(3ξ)][Ile(3ξ)]LDLLAARDF[Ile(3ξ)]NWL[Ile(3ξ)]Q[Thr(3ξ)]K[Ile(3ξ)][Thr(3ξ)]D-NH2)
[1]; Group A (apraglutide)
  body weight of mice surviving beyond Day 9: regained body weight
[1]; Group A (apraglutide) vs Group B (vehicle)
  weight loss: No significant difference
[1]; across the three Groups, FIG. 3
  length of the small intestine: no differences were observed
[1]; apraglutide 3 mg/kg s.c. every second day Day -9 to +7, 7.0 Gy + transplant
  median survival: 9 days
[1]; apraglutide 3 mg/kg s.c., 7.0 Gy + transplant
  mice survived past Day 9: 40%
[1]; apraglutide initiated before TBI/BMT, FIG. 14, p<0.03
  animal survival (Kaplan-Meier, log-rank test): significant difference relative to TBI/BMT animals
[1]; macroscopic score 0 least severe to 4 most severe, Group A
  mice showing an intestinal pathological score of 0: four out of out of ten
[2]; apraglutide 3.3 mg/kg Days -6 to 18, CD45 expression
  engraftment rate in blood, spleen and bone marrow: not affected
[2]; apraglutide vs vehicle
  hCD45+ cells infiltration in the intestinal wall: no difference
[2]; at D20 in blood, range
  engraftment rate in blood: 22.2-47.6%
[3]; apraglutide 0.11 mg/kg s.c. daily Day -4 to +4 with cytarabine 30 mg/kg i.p. twice per day Day 0 to +4
  animal survival: 11/16
[3]; apraglutide 0.33 mg/kg and 1.1 mg/kg co-administered with cytarabine, compared to cytarabine alone, FIG. 19
  citrulline concentrations: improvement
[3]; apraglutide 0.33 mg/kg s.c. daily Day -4 to +4 with cytarabine 30 mg/kg i.p. twice per day Day 0 to +4
  animal survival: 14/16
[3]; apraglutide 1.1 mg/kg s.c. daily Day -4 to +4 with cytarabine 30 mg/kg i.p. twice per day Day 0 to +4
  animal survival: 16/16
[3]; combination with cytarabine, apraglutide 0.11 mg/kg, hGLP-2 0.60 mg/kg twice daily
  initial weight loss: did not decrease
[3]; combination with cytarabine, apraglutide 0.11 mg/kg, hGLP-2 0.60 mg/kg twice daily, FIG. 18
  body weight and survival in animals recovering from cytarabine treatment: a trend towards increased body weight and survival
[3]
  polymorphonuclear (PMN) cell count: not reversed
[4]; apraglutide 3.3 mg/kg Days -9 to +7
  lymphocyte engraftment: successfully achieved
[4]; apraglutide 3.3 mg/kg, TBI + allogeneic transplantation
  mean colon length: 8.6±0.35 cm
[4]; apraglutide vs vehicle
  mucosal degenerative/inflammatory changes (post-mortem histological examination): less
[4]; on Day +9, p=0.0134 vs vehicle
  overall survival: 40%
[5]; apraglutide 3 mg/kg s.c. every second day Day -9 to +7, 8.5 Gy, vs vehicle group and untreated control mice, FIG. 1
  colon length: increased colon lengths that were nearly the same as the control mice
[5]; apraglutide 3 mg/kg s.c., compared with vehicle, histological grading 1 to 3
  overall mean severity score of mucosal degenerative/inflammatory changes in the jejunum: slightly decreased
[5]; jejunum, apraglutide 3 mg/kg s.c., compared with vehicle
  mean severity score of the regenerative cryptal hyperplasia: slightly increased
[6]; combination with apraglutide
  impact on cytarabine- or melphalan-induced immunosuppression: no negative impact
[7]; 4 weeks after the end of treatment
  recovery of hematological parameters: did not impact
[8]; FIG. 8
  chemotherapy-induced weight loss: attenuated
[8]; apraglutide 3.3 mg/kg co-administration, histology
  degenerative intestinal changes (villi and crypt atrophy) caused by cytarabine or melphalan: reduced
[8]; vs vehicle-only or chemotherapy-only groups, FIG. 9
  overall survival: improved
[8]; with apraglutide
  weight of duodenum, ileum and jejunum: increased in weight

## Nc1ccn([C@@H]2O[C@H](CO)[C@@H](O)[C@@H]2O)c(=O)n1 [Cytarabine only, Cytarabine]
[9]; Day 0 (pre-treatment)
  Mean % of taxa at the Phylum level, Bacteroidetes, Day 0: 16.3%
  Mean % of taxa at the Phylum level, Firmicutes, Day 0: 78.7%
[9]; [11]
  Mean % of taxa at the Phylum level, Bacteroidetes, Day 18: 48.7%
  Mean % of taxa at the Phylum level, Firmicutes, Day 18: 49.5%
[3]
  polymorphonuclear (PMN) cell count: depleted
[10]
  percentage of hCD45 in bone marrow after chemotherapy: 35.5±4%
[7]; at treatment end
  Lymphocytes, percentage difference from control: −91%
  Neutrophils, percentage difference from control: −82%
  Platelets, percentage difference from control: −68%
  Red blood cells, percentage difference from control: −23%
  White blood cells, percentage difference from control: −89%
[7]; end of the treatment period
  reduction in lymphocytes: 91%

## N[C@@H](Cc1ccc(N(CCCl)CCCl)cc1)C(=O)O [melphalan, Melphalan]
[6]; [12]
  LYMPH vs vehicle: severe decreases
  WBC vs vehicle: severe decreases
